Activity calls are given as the source filed them.
Legend:
HEK293 [1] = test: NOD1 signaling inhibitors, primary screen, cell-based, luminescence, uHTS (AID 1578); type: functional; conditions: Homo sapiens
HEK293 [2] = test: cells; type: functional, cell-based; conditions: Homo sapiens
HEK293 [3] = test: cells; type: functional, cell-based; conditions: Homo sapiens; remark: listed apart in the source
[4] = Luminescence-based counterscreen assay for KLF5 inhibitors: dose response cell-based high throughput screening assay to identify cytotoxic compounds using the IEC-6 intestinal epithelial cell line. [Related pubchem assays: 1700 (Primary screen.), 1834 (Confirmation screen.), 1858 (Summary AID.), 1905 (Counterscreen.)]; type: functional
[5] = biological target: Nucleotide-binding oligomerization domain-containing protein 2 (Homo sapiens, UniProt Q9HC29); test: NOD2 signaling inhibitors, cell-based, luminescence, uHTS, HEK293 (AID 1566); type: functional
Chain of Nucleotide-binding oligomerization domain-containing protein 2 (Q9HC29 whole entry, the tested form may be a part): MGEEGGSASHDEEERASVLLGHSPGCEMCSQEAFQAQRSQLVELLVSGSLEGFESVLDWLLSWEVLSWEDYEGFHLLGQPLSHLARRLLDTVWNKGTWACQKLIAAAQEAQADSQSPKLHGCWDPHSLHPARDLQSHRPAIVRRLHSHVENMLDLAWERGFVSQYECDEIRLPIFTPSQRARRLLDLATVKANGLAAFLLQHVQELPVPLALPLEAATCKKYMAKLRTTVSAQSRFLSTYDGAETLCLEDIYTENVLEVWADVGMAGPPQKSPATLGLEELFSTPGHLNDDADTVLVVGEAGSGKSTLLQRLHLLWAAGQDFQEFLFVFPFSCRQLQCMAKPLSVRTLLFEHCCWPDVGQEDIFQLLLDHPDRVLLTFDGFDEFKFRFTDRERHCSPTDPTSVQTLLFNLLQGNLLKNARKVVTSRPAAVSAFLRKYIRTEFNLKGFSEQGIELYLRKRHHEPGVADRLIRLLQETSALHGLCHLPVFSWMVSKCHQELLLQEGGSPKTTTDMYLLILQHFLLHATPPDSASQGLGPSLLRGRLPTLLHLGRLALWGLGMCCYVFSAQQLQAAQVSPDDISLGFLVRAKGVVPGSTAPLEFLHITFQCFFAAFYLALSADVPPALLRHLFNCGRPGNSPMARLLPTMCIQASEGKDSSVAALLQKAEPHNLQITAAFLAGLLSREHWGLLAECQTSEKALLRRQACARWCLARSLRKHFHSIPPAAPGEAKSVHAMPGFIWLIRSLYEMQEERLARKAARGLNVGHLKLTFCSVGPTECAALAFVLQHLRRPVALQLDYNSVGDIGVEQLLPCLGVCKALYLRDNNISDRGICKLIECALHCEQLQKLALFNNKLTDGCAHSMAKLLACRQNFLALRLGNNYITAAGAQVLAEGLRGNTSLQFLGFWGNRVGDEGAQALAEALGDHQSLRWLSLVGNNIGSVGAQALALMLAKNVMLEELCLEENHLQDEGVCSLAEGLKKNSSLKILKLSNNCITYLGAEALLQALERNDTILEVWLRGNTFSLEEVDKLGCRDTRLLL

HEK293 [6] = test: NOD2 signaling inhibitors in MDP-stimulated cells, cell-based, uHTS, luminescence (AID 2001); type: functional; conditions: Homo sapiens
HEK293 [7] = test: cells; type: functional, cell-based; conditions: Homo sapiens; remark: listed apart in the source
[8] = A cytotoxicity screen of small molecule inhibitors of the PhoP region in Salmonella typhi identified in the primary screen. [Related pubchem assays: 1850, 1864, 1985 ]; type: functional
HEK293 [9] = test: Fluorescence-based counterscreen for potentiators or agonists of NPY-Y2: cell-based high-throughput dose response assay to identify inhibitors of cyclic nucleotide gated ion channel (CNGC) activity. In this assay, the parental HEK293 cell line transfected with a cyclic-nucleotide gated ion channel (CNGC)-based cAMP sensor is used to measure inhibition of isoproterenol-induced CNGC activity by test compound.; type: functional; conditions: Homo sapiens
[10] = biological target: Neuropeptide Y receptor type 2 (Homo sapiens, UniProt P49146); test: Fluorescence-based cell-based high-throughput dose response assay for agonists of NPY-Y2. [Related pubchem assays: 1703 (Screening assay (CNGC inhibitors).), 1359 (Screening assay (NPY-Y2 potentiators or agonists).), 1304 (Screening assay (NPY-Y1 potentiators or agonists).), 1710 (Screening assay (NPY-Y2 agonists).), 1791 (Summary AID.)]; type: functional
Chain of Neuropeptide Y receptor type 2 (P49146 whole entry): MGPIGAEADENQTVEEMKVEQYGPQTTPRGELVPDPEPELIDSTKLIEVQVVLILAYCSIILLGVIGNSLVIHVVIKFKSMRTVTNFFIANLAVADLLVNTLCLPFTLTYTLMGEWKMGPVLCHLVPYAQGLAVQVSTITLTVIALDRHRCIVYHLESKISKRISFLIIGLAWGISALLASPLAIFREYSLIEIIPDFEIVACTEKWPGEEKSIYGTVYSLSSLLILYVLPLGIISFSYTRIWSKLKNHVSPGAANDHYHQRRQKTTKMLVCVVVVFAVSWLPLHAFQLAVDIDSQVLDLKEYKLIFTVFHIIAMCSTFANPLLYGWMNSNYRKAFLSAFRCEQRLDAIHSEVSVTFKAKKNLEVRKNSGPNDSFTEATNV

[11] = biological target: Neuropeptide Y receptor type 1 (Homo sapiens, UniProt P25929); test: Fluorescence-based counterscreen for agonists of NPY-Y2: cell-based high-throughput dose response assay for agonists of NPY-Y1.; type: functional
Chain of Neuropeptide Y receptor type 1 (P25929 whole entry): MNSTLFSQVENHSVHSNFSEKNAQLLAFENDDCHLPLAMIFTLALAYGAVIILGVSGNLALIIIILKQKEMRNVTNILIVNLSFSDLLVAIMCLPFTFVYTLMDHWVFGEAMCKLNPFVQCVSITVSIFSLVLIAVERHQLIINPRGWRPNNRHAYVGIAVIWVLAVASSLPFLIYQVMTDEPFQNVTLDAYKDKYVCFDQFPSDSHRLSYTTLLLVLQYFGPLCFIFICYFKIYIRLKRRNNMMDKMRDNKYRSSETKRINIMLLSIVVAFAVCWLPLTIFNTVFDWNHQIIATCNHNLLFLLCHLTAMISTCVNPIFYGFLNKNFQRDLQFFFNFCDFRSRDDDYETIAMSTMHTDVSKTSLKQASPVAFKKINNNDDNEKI

[12] = test system: Streptococcus sp. 'group A'; test: growth inhibition of control SK(-) GAS strain, dose response, counter-screen for streptokinase expression inhibitor project, luminescence, kanamycin, BacTiterGlo, confirmation (AID 1900); type: functional, organism-based
cells [13] = type: functional, cell-based
Streptokinase A = biological target: T1, Streptokinase A (Streptococcus pyogenes serotype M1, UniProt P10520); test: S. pyogenes streptokinase expression inhibitors, potency, dose response, plasminogen activation absorbance, OD405 (AID 1914); type: functional, Streptococcus pyogenes M1 GAS;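 note: secreted streptokinase activity via plasminogen activation per viability signal from cell pellet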
T1 sequence (P10520 whole entry): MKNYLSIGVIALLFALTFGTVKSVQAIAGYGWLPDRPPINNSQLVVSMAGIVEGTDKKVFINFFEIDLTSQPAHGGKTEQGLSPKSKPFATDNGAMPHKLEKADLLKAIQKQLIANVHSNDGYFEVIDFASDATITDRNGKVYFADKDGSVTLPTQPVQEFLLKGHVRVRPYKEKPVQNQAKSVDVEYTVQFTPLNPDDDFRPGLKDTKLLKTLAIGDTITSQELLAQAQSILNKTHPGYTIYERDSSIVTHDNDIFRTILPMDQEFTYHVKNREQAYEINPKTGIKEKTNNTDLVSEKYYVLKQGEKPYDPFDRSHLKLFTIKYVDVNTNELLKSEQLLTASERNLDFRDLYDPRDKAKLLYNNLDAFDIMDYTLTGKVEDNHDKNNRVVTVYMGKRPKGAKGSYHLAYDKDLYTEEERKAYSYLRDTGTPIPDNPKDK

[14] = inhibitors of intracellular T. cruzi replication, confirmation, NIH3T3 host cells, beta-gal luminescence (AID 2044); type: functional, cell-based;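 note: intracellular parasites grown in NIH/3T3 mouse fibroblasts as host cells; luminescent beta-galactosidase reporter signal from transgenic T. cruzi replicating inside host cells; inhibitors lower the luminescence signal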
cells [15] = type: functional, cell-based; remark: listed apart in the source
[16] = cytotoxicity toward NIH3T3 fibroblasts, dose response, counter-screen, cell-based, ATP luminescence, mouse fibroblasts (AID 2010); type: functional;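 note: cells exposed to compound for about 90 hours before reading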
Streptococcus = test: Group A Streptococcus viability loss, dose response, counter-screen for streptokinase expression inhibitor project, luminescence, BacTiterGlo (AID 1915); type: functional, organism-based;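 note: potency for reduction of bacterial viability or growth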
HEK293 [17] = test: inhibitors of LMP1-driven NF-kB reporter, dose response, cell-based, HEK293, luciferase, cherry-pick (AID 588343); type: functional; conditions: Homo sapiens
INS1 = test: beta cell apoptosis inhibitors, cytokine rescue, dose response, luminescence, retest (AID 449756); type: functional, cell-based; conditions: Rattus norvegicus;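 note: cell death triggered by IL-1 beta plus TNF-alpha plus IFN-gamma mixture; protective hits raise ATP signal compared with cytokine alone wells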

Structure (SMILES): Cc1cc(/C=N/Nc2nc(N)ncc2[N+](=O)[O-])c(C)n1-c1ccccc1F
- EC50 (HEK293 [1]): 4.64 µM (active)
- IC50 (HEK293 [2]): 1.77 µM (active)
- IC50 (HEK293 [3]): > 20 µM (inactive)
- IC50 [4]: > 39.8 µM (not active)
- EC50 [5]: < 0.31 µM (inactive)
- IC50 (HEK293 [6]): 6.02 µM (active)
- IC50 (HEK293 [7]): > 20 µM (inactive)

Structure (SMILES): CCc1nc(C)ccc1OCC(=O)N(CC)CC
- EC50 [8]: > 50 µM (active)

Structure (SMILES): CC(Nc1ccccc1)c1cccnc1 (configuration not stated)
- EC50 (HEK293 [9]): > 35.4 µM (not active)
- EC50 [10]: > 35.4 µM (not active)
- EC50 [11]: > 35.4 µM (not active)

Structure (SMILES): Clc1ccc(Nc2nc(C3CC3)cs2)cc1
- EC50 [8]: > 50 µM (active)

Structure (SMILES): Cc1ccc2[nH]c(C(=O)N/N=C/c3ccccc3O)c(C)c2c1
- EC50 [12]: 1.63 µM (active)
- EC50 (cells [13]): 6.86 µM (active)
- EC50 (Streptokinase A): > 150 µM (not active)
- IC50 [4]: 3.15 µM (active)
- EC50 [14]: 0.564 µM (active)
- EC50 (cells [15]): > 350 µM (not active)
- EC50 [16]: 6.55 µM (active)
- EC50 (Streptococcus): 3.86 µM (active)
- AC50 (HEK293 [17]): 7.07 µM (active)
- AC50 (INS1): 0.507 µM (active)

Source: ChEMBL document CHEMBL1201862, “PubChem BioAssay data set” (2004)
